Assay results published in US9867869B2, “Insulin derivatives for diabetes treatment” (Massachusetts Institute of Technology, priority 2012, dated 2018).

Tests used:
[1] = 11B NMR complexation efficiency with 4-carboxyphenylboronic acid; assay type: physicochemical; conditions: PBS 0.1M, 37° C.
Experimental: ^11B NMR spectra were recorded on a VARIAN Inova-500 spectrometer operated at 160.3 MHz with gXH switchable broadband probe installed. Samples at a concentration of 10 mM were transferred to a 5 mm Norell natural quartz NMR tube (Sigma-Aldrich). Diols and 4-carboxyphenylboronic acids were co-dissolved in phosphate buffer, 0.1 M at pH 7.4 or 8.5 and tested at 37° C.
PBA is known to recognize and bind to compounds containing 1,2- and 1,3-diol residues via the formation of a boronate ester [Wang et al., Curr. Org. Chem. 2002, 6, 1285-1317]. At aqueous conditions the boronate ester is a dynamic complex. […] In order to achieve this goal, a variety of commercially available azido substituted diols were tested for their ability to complex with PBA. […] In addition, the effect of azide group on the binding with PBA is unknown. Therefore, 4 commercially available azido diols (FIGS. 16A to 16D) were selected for testing based on their diverse structures. These compounds include azido-substituted monosaccharides (A and C), disaccharide (B), oligosaccharide (C), adenosine (D) and dopamine (E). The complexation between 4-carboxyphenylboronic acid and above materials was evaluated using ^11B NMR (FIG. 16, Table 1).
The chemical shift of boron in PBA changes when it is complexed with a diol. […] Therefore, the efficiency of complexation was estimated by monitoring the ratio of these two peaks. The effect of pH on complexation and structure of diols was studied.

[2] = 11B NMR complexing efficiency with 4NBA; assay type: physicochemical; conditions: for degree of complexation with 4NBA: pH and equivalence not stated; for Diol-PBA Complex %: 4NBA, pH 8.5, PBA:Diol 1:1, acetonitrile/PBS, room temperature
Experimental: (§1) Direct complexation of DP3-Insulin was carried out at an aqueous/organic 2/1 v/v solution in order to enable co-solubility with hydrophobic phenylboronic acids. Equal molar quantities of 4NBA and DP3-Insulin (0.5 mM) were dissolved in 2:1 acetonitrile:PBS and then the pH was modified to 7.5 or 8.5 by adding calculated amount of concentrated NaOH solution. The obtained complex was immediately frozen in liquid nitrogen and then freeze dried to generate a white solid. Similarly, selected diols (glucose, fructose, 4EC, 2HA, Azido-6-glactose, DP1-peptide and DP3-peptide) were formulated via the direct method. In order to validate formation of a complex 4NBA-diols, 1TBA-solids obtained by the direct method, as well as, their organic/aqueous solutions (prior to freeze drying) were analyzed with ^11B NMR and via FTIR.
(§2) 1TBA and 4NBA complexing efficiency with selected diols was measured in similar conditions but at a mixture of acetonitrile/PBS 2:1, according to the direct formulation procedure. Solid PBA-DIOL complexes were evaluated in DMSO. Data were analyzed with VNMR 6.1c software. Chemical shifts are reported in parts per million (ppm) on the δ scale.

[3] = 11B NMR stability of 4NBA:diol complexes in phosphate buffer; conditions: suspended in PBS, after 24 hr, pH 7.4, 37° C.
Experimental: FIG. 18 is a graph showing ^11B NMR analysis for the stability of 4NBA:diol complexes at phosphate buffer, 0.1 M, pH 7.4, 37° C. […] Solids were then separated via centrifugation and freeze dried. Samples were dissolved in DMSO-d^6 at a concentration of 10 mM and were tested at room temperature.
Complexation of DP3-Insulin with PBA was studied with ^11B NMR between 4NBA, 1TBA and selected diols (Table 2).

[4] = Solubility of hydrophobic PBA as function of glucose or fructose concentration; assay type: physicochemical; conditions: PBS with 0-1000 mg/dL glucose or fructose, 6 hours, RT
Experimental: FIGS. 19A and 19B are graphs showing hydrophobic PBAs (1TBA, 4DBA and 4NBA) tested as a function of glucose (A) and fructose (B) concentrations in PBS. 10 mg of solid, hydrophobic PBA were dispersed in […] of phosphate buffer saline containing various concentrations of glucose and fructose; samples were mixed for 6 hours at room temperature, centrifuged, and aliquots were quantified against a calibration curve using reverse phase HPLC.
2.14. Solubility of Hydrophobic PBA as Function of Glucose or Fructose Concentration. 10 mg of Hydrophobic PBA (4DBA, 1TBA and 4NBA) were suspended in 40 ml vials containing phosphate buffer saline with various concentrations of glucose or fructose (0-1000 mg/dL); samples were mixed for 6 hours at RT. The solid suspension was centrifuged and aliquots were evaluated for PBA concentration. Analytical HPLC (Agilent 1200) was used to analyze samples. 2.15 Diol-Insulin Analogs PBA Affinity Test

[5] = in vivo; cited from earlier work
[6] = 11B NMR complexing efficiency with 1TBA; assay type: physicochemical
Experimental: as §1, §2

[7] = traditional phenylboronic acid; cited from earlier work
[8] = pH 7.4, PBA:Diol 1:1, PBA 10 mM
[9] = pH 7.4, PBA:Diol 1:2, PBA 10 mM
[10] = pH 7.4, PBA:Diol 1:10, PBA 10 mM
[11] = pH 8.5, PBA:Diol 1:2, PBA 10 mM

Question: With `O=C(CO)[C@@H](O)[C@H](O)[C@H](O)CO` [Frucrose] as the compound, how does the Complex % [1, 8] read?
Answer: 27.4%

Question: What about the Complex % [1, 9] of the same compound?
Answer: 34.9%

Question: And the Complex % ([1]; pH 7.4, PBA:Diol 1:2, PBA 10 mM, listed as Fructose)?
Answer: 35%

Question: And the Complex % [1, 10]?
Answer: 44.9%

Question: And the Complex % [1, 11]?
Answer: 67.3%

Question: And the “degree of complexation with 4NBA” value [2]?
Answer: ~100%

Question: What about the complexed form remaining [3] of the same compound?
Answer: above 50%

Question: Which Complex % [1, 9] does the source give for `NCCc1ccc(O)c(O)c1` [Dopamine] here?
Answer: 38.7%

Question: And the Complex % ([1]; pH 7.4, PBA:Diol 1:2, PBA 10 mM, listed as E)?
Answer: 39%

Question: And the Complex % [1, 10]?
Answer: 58.1%

Question: What about the Complex % [1, 11] of the same compound?
Answer: 100.0%

Question: With `[N-]=[N+]=N[C@H]1O[C@H](CO)[C@@H](O)[C@H](O)[C@@H]1O` [Alpha-D-Mannopyranosyl azide] as the compound, how does the Complex % [1, 9] read?
Answer: 4.2%

Question: What about the Complex % [1, 11] of the same compound?
Answer: 22.5%

Question: Which Complex % [1, 9] does the source give for `[N-]=[N+]=NC[C@@H](O)[C@H](O)[C@H](O)[C@@H](O)C=O` [6-azido-6-deoxy-D-galactose] here?
Answer: 17.6%

Question: What about the Complex % [1, 11] of the same compound?
Answer: 74.9%

Question: Which “solubility and glucose response range” value [4] does the source give for `COc1ccc(CN(C2CCCCC2)S(=O)(=O)c2ccc(B(O)O)cc2)cc1` [4NBA, 4-(N-cyclohexyl-N-(4-methoxybenzyl)sulfamoyl)phenylboronic acid] here?
Answer: low solubility and response range within expected diabetic glucose levels

Question: For “azido-pentanoic-DOPA-GLY-DOPA-GLY-DOPA-GLY-NH2 [DP3-peptides]”, which “Diol-PBA Complex %” value [2] is on record?
Answer: 91%

Question: For glargine, which “time basal level of insulin is maintained” value [5] is on record?
Answer: up to 24 hours

Question: What does the source list for `O=C[C@H](O)[C@@H](O)[C@H](O)[C@H](O)CO` [Glucose]?
Answer: Complex % [1, 8]: 4.0%; Complex % [1, 9]: 11.0%; Complex % ([1]; pH 7.4, PBA:Diol 1:2, PBA 10 mM, listed as glucose): 11%; Complex % [1, 10]: 22.8%; Complex % [1, 11]: 49.4%; Complex % ([1]; pH 8.5, PBA:Diol 1:2, PBA 10 mM, listed as glucose): up to 50%; degree of complexation with 4NBA [2]: 74%; complexed form remaining [3]: less than 10%

Question: What does the source list for “Lispro: fast acting insulin where B29 lysine and B28 proline have been switched”?
Answer: duration of action [5]: 4 to 6 h; onset time [5]: 5 to 15 min; peak action [5]: 30 to 90 min

Question: What does the source list for Maltoheptaose?
Answer: Complex % [1, 8]: 7.5%; Complex % ([1]; pH 8.5, PBA:Diol 1:1, PBA 10 mM): 4.0%

Question: With `[N-]=[N+]=Nc1nc2c(N)ncnc2n1[C@@H]1O[C@H](CO)[C@@H](O)[C@H]1O` [8-Azido-Adenoside] as the compound, how does the Complex % [1, 9] read?
Answer: 47.6%

Question: And the Complex % ([1]; pH 7.4, PBA:Diol 1:2, PBA 10 mM, listed as D)?
Answer: 48%

Question: What about the Complex % [1, 11] of the same compound?
Answer: 61.6%

Question: For `[N-]=[N+]=N[C@@H]1O[C@H](CO)[C@@H](O[C@@H]2O[C@H](CO)[C@H](O)[C@H](O)[C@H]2O)[C@H](O)[C@H]1O` [1-Azido-1-deoxy-beta-D-lactopyranoside], which Complex % [1, 9] is on record?
Answer: 4.0%

Question: What about the Complex % [1, 11] of the same compound?
Answer: 8.3%

Question: What does the source list for `CCc1ccc(O)c(O)c1` [4EC]?
Answer: Diol-PBA Complex % [2]: 87%; Diol-PBA Complex % ([6]; 1TBA, pH 8.5, PBA:Diol 1:1, acetonitrile/PBS, room temperature): 75%; complexation ratio ([6]; pH of 7.5, PBA not specified (1TBA and 4NBA named)): 10%

Question: For `OB(O)c1ccccc1` [phenylboronic acid], which pKa [7] is on record?
Answer: approximately 8.9
